Assay results from PMC5345657, “Targeting myeloid differentiation protein 2 by the new chalcone L2H21 protects LPS‐induced acute lung injury” (Journal of Cellular and Molecular Medicine, 2016).

Target: T1, MD-2 (myeloid differentiation protein 2, rhMD-2) (Homo sapiens, UniProt Q9Y6Y9)
T1 construct: gene LY96; recombinant human MD-2 (rhMD-2, R&D Systems)
T1 sequence (Q9Y6Y9 19-160): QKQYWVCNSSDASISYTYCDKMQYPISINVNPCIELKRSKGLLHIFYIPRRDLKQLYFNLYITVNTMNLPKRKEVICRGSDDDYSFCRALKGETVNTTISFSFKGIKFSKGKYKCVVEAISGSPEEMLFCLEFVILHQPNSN
Test: SPR (ProteOn XPR36); supported by bis-ANS displacement and biotin-LPS competition ELISA; R90A and Y102A abolish binding

- Kd: 19.1 µM
SMILES: COc1cccc(/C=C/C(=O)c2ccc(O)c(O)c2)c1OC [L2H21, (E)‐2,3‐Dimethoxy‐3′,4′‐dihydroxychalcone]
